This test deals with T1, soluble guanylate cyclase (sGC) (Rattus norvegicus, UniProt P20595).
T1 construct: endogenous in cells; host or cells: primary rat aortic smooth muscle cells
T1 sequence (P20595 1-619): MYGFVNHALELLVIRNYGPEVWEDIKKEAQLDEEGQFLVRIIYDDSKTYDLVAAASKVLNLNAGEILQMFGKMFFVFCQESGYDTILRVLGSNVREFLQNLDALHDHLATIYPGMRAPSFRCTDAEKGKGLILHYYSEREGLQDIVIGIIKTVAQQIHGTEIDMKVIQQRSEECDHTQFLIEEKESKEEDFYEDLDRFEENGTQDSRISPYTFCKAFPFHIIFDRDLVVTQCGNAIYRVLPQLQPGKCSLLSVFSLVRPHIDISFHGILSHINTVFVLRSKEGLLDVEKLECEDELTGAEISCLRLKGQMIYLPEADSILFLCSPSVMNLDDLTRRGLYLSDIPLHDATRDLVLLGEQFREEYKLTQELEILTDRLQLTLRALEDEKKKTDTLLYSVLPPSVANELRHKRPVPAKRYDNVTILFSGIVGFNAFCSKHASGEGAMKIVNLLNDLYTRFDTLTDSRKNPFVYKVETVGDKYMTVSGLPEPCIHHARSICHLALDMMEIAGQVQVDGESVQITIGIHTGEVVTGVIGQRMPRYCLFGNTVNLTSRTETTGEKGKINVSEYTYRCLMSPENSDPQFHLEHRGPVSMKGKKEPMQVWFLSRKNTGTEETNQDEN
T1 sequence (P19686 1-690 partner): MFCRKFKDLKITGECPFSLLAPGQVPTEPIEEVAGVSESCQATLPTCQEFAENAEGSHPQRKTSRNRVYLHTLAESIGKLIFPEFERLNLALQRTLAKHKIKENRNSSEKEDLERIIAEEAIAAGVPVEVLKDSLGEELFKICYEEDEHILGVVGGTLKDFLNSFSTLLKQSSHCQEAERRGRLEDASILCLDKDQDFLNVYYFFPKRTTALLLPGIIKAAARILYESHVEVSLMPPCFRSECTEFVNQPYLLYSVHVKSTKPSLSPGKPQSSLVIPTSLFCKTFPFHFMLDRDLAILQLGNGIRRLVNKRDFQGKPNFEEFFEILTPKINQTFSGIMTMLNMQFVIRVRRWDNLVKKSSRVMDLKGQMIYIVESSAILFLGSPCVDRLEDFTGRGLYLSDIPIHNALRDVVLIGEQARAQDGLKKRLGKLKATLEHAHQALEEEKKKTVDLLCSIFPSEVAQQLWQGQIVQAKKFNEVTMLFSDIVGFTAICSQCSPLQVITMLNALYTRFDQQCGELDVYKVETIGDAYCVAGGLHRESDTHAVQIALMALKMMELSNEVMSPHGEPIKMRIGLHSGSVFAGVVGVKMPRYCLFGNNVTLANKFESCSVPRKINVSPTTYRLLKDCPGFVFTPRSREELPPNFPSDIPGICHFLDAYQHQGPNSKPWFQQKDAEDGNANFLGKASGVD
As to the kind of experiment: Biological cellular assay: sGC activity by phosphorylation of VASP in rat aortic smooth muscle cells. Type of test: cell-based. The conditions noted are these: primary rat aortic smooth muscle cells, pre-incubated with 10 μM ODQ, 30 min at 37° C., phospho-VASP (pSer239) fluorescent signal; read-out: Cell assay pEC50 (converted). As for the experimental part: The activity of soluble guanylate cyclase (sGC) was tested in an assay based on measuring phosphorylation of the protein kinase G (PKG) substrate vasodilator-stimulated phosphoprotein (VASP) in rat aortic smooth muscle cells. […] Dimethylsulfoxide (DMSO) vehicle and varying concentrations of the compound to be tested were then added. Following a 30 min incubation at 37° C., media was aspirated and the cells were rinsed with phosphate-buffered saline (PBS) and fixed with 4% formaldehyde in PBS by incubating at room temperature for 20 min. Cells were then washed with PBS and permeabilized for 10 min using 0.1% triton X-100 in PBS. Following PBS rinsing, the cells were blocked for 90 min at room temperature with blocking buffer. The buffer was aspirated and the cells were treated overnight at 4° C. with primary antibody (pSer239-VASP, rabbit polyclonal Ab) diluted 1:500 in blocking buffer. Following three washes with 0.05% Tween 20, the cells were treated for 1 h at room temperature with a fluorescent labeled secondary antibody (IRDye® 800CW Donkey Anti-Rabbit IgG) diluted 1:2500 in blocking buffer with 0.05% Tween 20. Following two washes with PBS, infrared fluorescence was measured using an Odyssey Infrared Imaging System. The activity of a test compound was determined as the pEC50 value which is the concentration able to increase by 50% (vs. Bmax) the phospho-VASP fluorescent signal. Front. Pharmacol., 5 Jul. 2012|doi: 10.3389/fphar.2012.00128, Volume 3 July, 2012, Article number 128.

Structures can show the parent of a compound that is named as a salt.

Regarding `Cc1cc(C2CCN(C(=O)CC3CCOC3)CC2)ccc1COc1c(F)cc(F)cc1-c1cccc(N2CCC(C(=O)O)CC2)n1` (stereo not drawn) [Example 79, 1-(6-(3,5-difluoro-2-((2-methyl-4-(1-(2-(tetrahydrofuran-3-yl)acetyl)piperidin-4-yl)benzyl)oxy)phenyl)pyridin-2-yl)piperidine-4-carboxylic acid, Sodium salt], the EC50 is 1.26 nM.
With `Cc1cc(C2CCN(C3COC3)CC2)ccc1COc1c(F)cc(F)cc1-c1cccc(N2CCC(C(=O)O)CC2)n1` [Example 39, 1-(6-(3,5-difluoro-2-((2-methyl-4-(1-(oxetan-3-yl)piperidin-4-yl)benzyl)oxy)phenyl)pyridin-2-yl)piperidine-4-carboxylic acid, Sodium salt] the figure was 0.794 nM; with `Cc1nc(C2CCN(C(=O)C3COC3)CC2)ccc1COc1c(F)cc(F)cc1-c1cccc(N2CCC(C(=O)O)CC2)n1` [Example 30, 1-(6-(3,5-difluoro-2-((2-methyl-6-(1-(oxetane-3-carbonyl)piperidin-4-yl)pyridin-3-yl)methoxy)phenyl)pyridin-2-yl)piperidine-4-carboxylic acid, Sodium salt,], 20 nM.
With `Cc1cc(C2CCN(C3CCOC3)CC2)ccc1COc1c(F)cc(F)cc1-c1cccc(N2CCC(C(=O)O)CC2)n1` (stereo not drawn) [Example 42, 1-(6-(3,5-difluoro-2-((2-methyl-4-(1-(tetrahydrofuran-3-yl)piperidin-4-yl)benzyl)oxy)phenyl)pyridin-2-yl)piperidine-4-carboxylic acid, Sodium salt] the figure was 2.51 nM; with `Cc1cc(C2CCN(C(=O)CC3CC3)CC2)ccc1COc1c(F)cc(F)cc1-c1cccc(N2CCC(C(=O)O)CC2)n1` [Example 66, 1-(6-(2-((4-(1-(2-cyclopropylacetyl)piperidin-4-yl)-2-methylbenzyl)oxy)-3,5-difluorophenyl)pyridin-2-yl)piperidine-4-carboxylic acid, Sodium salt], 0.316 nM.
The value for `Cc1cc(C2CCN(C(=O)CC#N)CC2)ccc1COc1c(F)cc(F)cc1-c1cccc(N2CCC(C(=O)O)CC2)n1` [Example 63, 1-(6-(2-((4-(1-(2-cyanoacetyl)piperidin-4-yl)-2-methylbenzyl)oxy)-3,5-difluorophenyl)pyridin-2-yl)piperidine-4-carboxylic acid, Sodium salt] was 0.398 nM.
Take `Cc1cc(C2CCN(CCO)CC2)ccc1COc1c(F)cc(F)cc1-c1cccc(N2CCC(C(=O)O)CC2)n1` [Example 51, 1-(6-(3,5-difluoro-2-((4-(1-(2-hydroxyethyl)piperidin-4-yl)-2-methylbenzyl)oxy)phenyl)pyridin-2-yl)piperidine-4-carboxylic acid, Sodium salt]: the EC50 was 31.6 nM.
With `Cc1cc(C2CCN(C(=O)Cn3cncn3)CC2)ccc1COc1c(F)cc(F)cc1-c1cccc(N2CCC(C(=O)O)CC2)n1` [Example 84, 1-(6-(2-((4-(1-(2-(1H-1,2,4-triazol-1-yl)acetyl)piperidin-4-yl)-2-methylbenzyl)oxy)-3,5-difluorophenyl)pyridin-2-yl)piperidine-4-carboxylic acid, Sodium salt] the figure was 20 nM; with `Cc1nc(C2CCN(CC3CCOC3)CC2)ccc1COc1c(F)cc(F)cc1-c1cccc(N2CCC(C(=O)O)CC2)n1` (stereo not drawn) [Example 23, 1-(6-(3,5-difluoro-2-((2-methyl-6-(1-((tetrahydrofuran-3-yl)methyl)piperidin-4-yl)pyridin-3-yl)methoxy)phenyl)pyridin-2-yl)piperidine-4-carboxylic acid], 251 nM.
Regarding `COc1cc(C2CCN(CC(F)(F)F)CC2)ccc1COc1c(F)cc(F)cc1-c1cccc(N2CCC(C(=O)O)CC2)n1` [Example 87, 1-(6-(3,5-difluoro-2-((2-methoxy-4-(1-(2,2,2-trifluoroethyl)piperidin-4-yl)benzyl)oxy)phenyl)pyridin-2-yl)piperidine-4-carboxylic acid, Sodium salt], the EC50 was 2.51 nM.
The value for `Cc1cc(C2CCN(CCC(F)(F)F)CC2)ccc1COc1c(F)cc(F)cc1-c1cccc(N2CCC(C(=O)O)CC2)n1` [Example 54, 1-(6-(3,5-difluoro-2-((2-methyl-4-(1-(3,3,3-trifluoropropyl)piperidin-4-yl)benzyl)oxy)phenyl)pyridin-2-yl)piperidine-4-carboxylic acid, Sodium salt] was 2.51 nM; that for `Cc1cc(C2CCN(C(=O)[C@@H]3CCOC3)CC2)ccc1COc1c(F)cc(F)cc1-c1cccc(N2CCC(C(=O)O)CC2)n1` [Example 73, (R)-1-(6-(3,5-difluoro-2-((2-methyl-4-(1-(tetrahydrofuran-3-carbonyl)piperidin-4-yl)benzyl)oxy)phenyl)pyridin-2-yl)piperidine-4-carboxylic acid, Sodium salt] was 0.0891 nM.
The value for `O=C(O)C1CCN(c2cccc(-c3cc(F)cc(F)c3OCc3ccc(C4CCN(CC(F)(F)F)CC4)cc3OC3COC3)n2)CC1` [Example 90, 1-(6-(3,5-difluoro-2-((2-(oxetan-3-yloxy)-4-(1-(2,2,2-trifluoroethyl)piperidin-4-yl)benzyl)oxy)phenyl)pyridin-2-yl)piperidine-4-carboxylic acid, Sodium salt] was 1.26 nM; that for `Cc1cc(C2CCN(C(=O)CC3COC3)CC2)ccc1COc1c(F)cc(F)cc1-c1cccc(N2CCC(C(=O)O)CC2)n1` [Example 76, 1-(6-(3,5-difluoro-2-((2-methyl-4-(1-(2-(oxetan-3-yl)acetyl)piperidin-4-yl)benzyl)oxy)phenyl)pyridin-2-yl)piperidine-4-carboxylic acid, Sodium salt] was 1 nM.
With `Cc1cc(C2CCN(C(=O)C3COC3)CC2)ccc1COc1c(F)cc(F)cc1-c1cccc(N2CCC(C(=O)O)CC2)n1` [Example 6, 1-(6-(3,5-difluoro-2-((2-methyl-4-(1-(oxetane-3-carbonyl)piperidin-4-yl)benzyl)oxy)phenyl)pyridin-2yl)piperidine-4-carboxylic acid] the figure was 0.1 nM; with `CCOC(=O)C1CCN(c2cccc(-c3cc(F)cc(F)c3OCc3ccc(C4CCN(CC#N)CC4)cc3C)n2)CC1` [Example 1, ethyl 1-(6-(2-((4-(1-(cyanomethyl)piperidin-4-yl)-2-methylbenzyl)oxy)-3,5-difluorophenyl)pyridin-2-yl)piperidine-4-carboxylate], 0.631 nM.
In the case of `Cc1cc(C2CCN(CC(F)(F)F)CC2)ncc1COc1c(F)cc(F)cc1-c1cccc(N2CCC(C(=O)O)CC2)n1` [Example 9, 1-(6-(3,5-difluoro-2-((4-methyl-6-(1-(2,2,2-trifluoroethyl)piperidin-4-yl)pyridin-3-yl)methoxy)phenyl)pyridin-2-yl)piperidine-4-carboxylic acid, sodium salt], the EC50 was 10 nM.
The value for `Cc1cc(C2CCN(C(=O)CO)CC2)ccc1COc1c(F)cc(F)cc1-c1cccc(N2CCC(C(=O)O)CC2)n1` [Example 57, 1-(6-(3,5-difluoro-2-((4-(1-(2-hydroxyacetyl)piperidin-4-yl)-2-methylbenzyl)oxy)phenyl)pyridin-2-yl)piperidine-4-carboxylic acid, Sodium salt] was 0.0794 nM.
